Consider six compounds from ChEMBL document CHEMBL2021863, “Design and synthesis of new 4-pyrazolin-3-yl-1,2,3-triazoles and 1,2,3-triazol-4-yl-pyrazolin-1-ylthiazoles as potential antimicrobial agents” (2012).

Common to all, as to format: functional
Assay [1] deals with Klebsiella pneumoniae. As to the kind of experiment: Antimicrobial activity against Klebsiella pneumoniae ATCC 13883 at 100 ug/ml after 24 hrs by agar well diffusion assay. The following applies: ATCC 13883, 24 h, read-out: DIZ.
Assay [2] concerns Saccharomyces cerevisiae. As to the kind of experiment: Antifungal activity against Saccharomyces cerevisiae by two-fold serial dilution method.
Assay [3] relates to Candida albicans. As to the kind of experiment: Antifungal activity against Candida albicans NRRL Y-477 at 100 ug/ml after 24 hrs by agar well diffusion assay. The following applies: NRRL Y-477, 24 h, read-out: DIZ.
The subject of assay [4] is Micrococcus luteus. As to the kind of experiment: Antimicrobial activity against Sarcina lutea at 100 ug/ml after 24 hrs by agar well diffusion assay. As to conditions: read-out: DIZ.
Assay [5] deals with Saccharomyces cerevisiae. As to the kind of experiment: Antifungal activity against Saccharomyces cerevisiae at 100 ug/ml after 24 hrs by agar well diffusion assay. As to conditions: read-out: DIZ.
The subject of assay [6] is Bacillus subtilis. As to the kind of experiment: Antimicrobial activity against Bacillus subtilis ATCC 6633 at 100 ug/ml after 24 hrs by agar well diffusion assay. The following applies: ATCC 6633, 24 h, read-out: DIZ.
Assay [7] has as its system Priestia megaterium. As to the kind of experiment: Antimicrobial activity against Bacillus megaterium ATCC 9885 after 24 hrs by two-fold serial dilution method. As to conditions: ATCC 9885, 24 h.
For assay [8], the system named is Candida albicans. As to the kind of experiment: Antifungal activity against Candida albicans NRRL Y-477 by two-fold serial dilution method.
The subject of assay [9] is Micrococcus luteus. As to the kind of experiment: Antimicrobial activity against Sarcina lutea after 24 hrs by two-fold serial dilution method.
In assay [10] the test system is Staphylococcus aureus. As to the kind of experiment: Antimicrobial activity against Staphylococcus aureus ATCC 29213 after 24 hrs by two-fold serial dilution method. As to conditions: ATCC 29213, 24 h.
The subject of assay [11] is Klebsiella pneumoniae. As to the kind of experiment: Antimicrobial activity against Klebsiella pneumoniae ATCC 13883 after 24 hrs by two-fold serial dilution method. The following applies: ATCC 13883, 24 h.
The test system of assay [12] is Priestia megaterium. As to the kind of experiment: Antimicrobial activity against Bacillus megaterium ATCC 9885 at 100 ug/ml after 24 hrs by agar well diffusion assay. The following applies: ATCC 9885, 24 h, read-out: DIZ.
The subject of assay [13] is Bacillus subtilis. As to the kind of experiment: Antimicrobial activity against Bacillus subtilis ATCC 6633 after 24 hrs by two-fold serial dilution method. The following applies: ATCC 6633, 24 h.
In assay [14] the test system is Staphylococcus aureus. As to the kind of experiment: Antimicrobial activity against Staphylococcus aureus ATCC 29213 at 100 ug/ml after 24 hrs by agar well diffusion assay. As to conditions: ATCC 29213, 24 h, read-out: DIZ.
Assay [15] concerns Escherichia coli. As to the kind of experiment: Antimicrobial activity against Escherichia coli ATCC 25922 after 24 hrs by two-fold serial dilution method. The following applies: ATCC 25922, 24 h.
In assay [16] the test system is Pseudomonas aeruginosa. As to the kind of experiment: Antimicrobial activity against Pseudomonas aeruginosa ATCC 27953 after 24 hrs by two-fold serial dilution method. The following applies: ATCC 27953, 24 h.
Assay [17] relates to Pseudomonas aeruginosa. As to the kind of experiment: Antimicrobial activity against Pseudomonas aeruginosa ATCC 27953 at 100 ug/ml after 24 hrs by agar well diffusion assay. As to conditions: ATCC 27953, 24 h, read-out: DIZ.
Assay [18] has as its system Escherichia coli. As to the kind of experiment: Antimicrobial activity against Escherichia coli ATCC 25922 at 100 ug/ml after 24 hrs by agar well diffusion assay. As to conditions: ATCC 25922, 24 h, read-out: DIZ.

≈ marks a conversion by molar mass, not a printed value.

As to `Cc1ccc(-n2nnc(C3=NN(C(=S)Nc4ccccc4)C(c4ccc(F)cc4)C3)c2C)cc1` (centres undefined), the zone of inhibition at 100 µg/mL with Klebsiella pneumoniae [1] came out at 22 mm; in the assay with Candida albicans [3], 22 mm; with Micrococcus luteus [4], 20 mm; in the assay on Saccharomyces cerevisiae [5], 24 mm; with Bacillus subtilis [6] it was 27 mm; with Priestia megaterium [12], 20 mm. The zone of inhibition at 100 µg/mL in the assay on Staphylococcus aureus [14] is 16 mm. The MIC worked out at 16.5 µg/mL (≈ 35.1 µM) in the assay on Saccharomyces cerevisiae [2]; 16.5 µg/mL (≈ 35.1 µM) in the assay with Priestia megaterium [7]; 16.5 µg/mL (≈ 35.1 µM) with Candida albicans [8]; 16.5 µg/mL (≈ 35.1 µM) against Micrococcus luteus [9]; 132 µg/mL (≈ 281 µM) against Staphylococcus aureus [10]; 16.5 µg/mL (≈ 35.1 µM) against Klebsiella pneumoniae [11]. In the assay on Bacillus subtilis [13], the MIC worked out at 16.5 µg/mL (≈ 35.1 µM).

For `Cc1ccc(-n2nnc(C3=NNC(c4ccc(N5CCCCC5)cc4)C3)c2C)cc1` (centres undefined), the MIC against Saccharomyces cerevisiae [2] is 66 µg/mL (≈ 165 µM); with Candida albicans [8] it was 132 µg/mL (≈ 330 µM); against Micrococcus luteus [9] it was 33 µg/mL (≈ 82.4 µM); in the assay with Staphylococcus aureus [10] it was 132 µg/mL (≈ 330 µM); in the assay with Bacillus subtilis [13], 132 µg/mL (≈ 330 µM). For the same compound, the zone of inhibition at 100 µg/mL in the assay with Candida albicans [3] was 18 mm; with Micrococcus luteus [4] it was 18 mm; with Saccharomyces cerevisiae [5] it was 18 mm; in the assay with Bacillus subtilis [6] it was 16 mm; in the assay on Staphylococcus aureus [14], 18 mm.

For the compound `Cc1ccc(-n2nnc(C(=O)/C=C/c3ccccc3)c2C)cc1`, the zone of inhibition at 100 µg/mL with Klebsiella pneumoniae [1] came to 16 mm; with Candida albicans [3] it was 24 mm; with Micrococcus luteus [4], 26 mm; in the assay on Saccharomyces cerevisiae [5], 22 mm; with Bacillus subtilis [6], 26 mm; with Pseudomonas aeruginosa [17], 28 mm. Moreover, the zone of inhibition at 100 µg/mL is 22 mm with Staphylococcus aureus [14] and 32 mm with Escherichia coli [18]. In addition, the MIC was found to be 66 µg/mL (≈ 218 µM) in the assay on Saccharomyces cerevisiae [2]; 8.25 µg/mL (≈ 27.2 µM) in the assay on Escherichia coli [15]; 16.5 µg/mL (≈ 54.4 µM) against Candida albicans [8]; 16.5 µg/mL (≈ 54.4 µM) in the assay on Micrococcus luteus [9]; 16.5 µg/mL (≈ 54.4 µM) in the assay on Staphylococcus aureus [10]; 132 µg/mL (≈ 435 µM) in the assay with Klebsiella pneumoniae [11]. Further, the MIC with Pseudomonas aeruginosa [16] turned out to be 8.25 µg/mL (≈ 27.2 µM); in the assay with Bacillus subtilis [13] it was 33 µg/mL (≈ 109 µM).

On to `Cc1ccc(-n2nnc(C3=NN(C(=S)Nc4ccccc4)C(c4ccccc4)C3)c2C)cc1` (centres undefined), for which the zone of inhibition at 100 µg/mL with Klebsiella pneumoniae [1] turned out to be 18 mm; with Candida albicans [3] it was 24 mm; with Micrococcus luteus [4] it was 20 mm; with Saccharomyces cerevisiae [5] it was 26 mm; in the assay on Bacillus subtilis [6], 26 mm; with Priestia megaterium [12], 24 mm. Also, the zone of inhibition at 100 µg/mL with Pseudomonas aeruginosa [17] is 24 mm; with Staphylococcus aureus [14], 18 mm. Moreover, the MIC in the assay with Saccharomyces cerevisiae [2] stood at 16.5 µg/mL (≈ 36.5 µM); against Escherichia coli [15], 8.25 µg/mL (≈ 18.2 µM); in the assay on Priestia megaterium [7], 8.25 µg/mL (≈ 18.2 µM); with Candida albicans [8] it was 16.5 µg/mL (≈ 36.5 µM); in the assay with Micrococcus luteus [9], 66 µg/mL (≈ 146 µM); in the assay on Staphylococcus aureus [10] it was 8.25 µg/mL (≈ 18.2 µM). Besides, the values for the MIC in the assay with Klebsiella pneumoniae [11] and against Pseudomonas aeruginosa [16] were 16.5 µg/mL (≈ 36.5 µM) and 132 µg/mL (≈ 292 µM), respectively.

As to `Cc1ccc(-n2nnc(C(=O)/C=C/c3ccc(N4CCCCC4)cc3)c2C)cc1`, the MIC is 66 µg/mL (≈ 171 µM) with Saccharomyces cerevisiae [2]; 8.25 µg/mL (≈ 21.3 µM) in the assay on Escherichia coli [15]; 33 µg/mL (≈ 85.4 µM) in the assay with Priestia megaterium [7]; 16.5 µg/mL (≈ 42.7 µM) with Candida albicans [8]; 33 µg/mL (≈ 85.4 µM) in the assay on Micrococcus luteus [9]; 132 µg/mL (≈ 342 µM) in the assay on Staphylococcus aureus [10]. In addition, the MIC came to 132 µg/mL (≈ 342 µM) in the assay with Pseudomonas aeruginosa [16] and 33 µg/mL (≈ 85.4 µM) in the assay with Bacillus subtilis [13]. Moreover, the zone of inhibition at 100 µg/mL in the assay with Candida albicans [3] came to 18 mm; in the assay with Micrococcus luteus [4], 28 mm; in the assay with Saccharomyces cerevisiae [5] it was 20 mm; in the assay with Bacillus subtilis [6], 18 mm; with Priestia megaterium [12], 20 mm; in the assay with Pseudomonas aeruginosa [17], 16 mm. Moreover, the zone of inhibition at 100 µg/mL in the assay on Staphylococcus aureus [14] is 16 mm; in the assay with Escherichia coli [18], 28 mm.

For the compound `Cc1ccc(-n2nnc(C3=NN(C4=NC(=O)CS4)C(c4ccc(F)cc4)C3)c2C)cc1` (centres undefined), the MIC was 66 µg/mL (≈ 152 µM) against Saccharomyces cerevisiae [2]; 8.25 µg/mL (≈ 19 µM) in the assay on Escherichia coli [15]; 8.25 µg/mL (≈ 19 µM) in the assay on Priestia megaterium [7]; 132 µg/mL (≈ 304 µM) with Candida albicans [8]; 132 µg/mL (≈ 304 µM) in the assay on Micrococcus luteus [9]; 33 µg/mL (≈ 75.9 µM) in the assay with Pseudomonas aeruginosa [16]. Further, the zone of inhibition at 100 µg/mL in the assay on Candida albicans [3] was determined as 16 mm; in the assay with Micrococcus luteus [4], 16 mm; in the assay on Saccharomyces cerevisiae [5], 18 mm; in the assay on Priestia megaterium [12], 30 mm; in the assay on Pseudomonas aeruginosa [17] it was 20 mm; in the assay on Escherichia coli [18], 28 mm.
